For 32 molecules, EC50 results are on record in patent US20080221161A1, “HETEROCYCLIC MODULATORS OF TGR5 FOR TREATMENT OF DISEASE” (KALYPSYS, INC., priority 2007, published 2008).

Molecules are shown by their SMILES.

This experiment deals with T1, human TGR5 (Homo sapiens, UniProt Q8TDU6).
T1 construct: expressed in transfected cells; host or cells: HEK-293 cells, stably transfected (pcDNA 3.1, Fugene6, geneticin selection)
T1 sequence (Q8TDU6 1-330): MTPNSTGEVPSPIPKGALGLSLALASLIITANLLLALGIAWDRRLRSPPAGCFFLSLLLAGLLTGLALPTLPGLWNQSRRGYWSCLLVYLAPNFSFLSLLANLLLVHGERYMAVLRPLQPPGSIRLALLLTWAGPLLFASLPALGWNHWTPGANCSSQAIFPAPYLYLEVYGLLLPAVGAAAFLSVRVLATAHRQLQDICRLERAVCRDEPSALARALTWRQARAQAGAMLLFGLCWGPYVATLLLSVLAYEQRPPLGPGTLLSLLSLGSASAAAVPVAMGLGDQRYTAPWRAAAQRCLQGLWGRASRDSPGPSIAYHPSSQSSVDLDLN
Put plainly: cAMP production assay in HEK293-TGR5 cells. Type of experiment: cell-based. The conditions noted are these: HEK293 cells stably expressing human TGR5; 30 minutes stimulation; LANCE cAMP TR-FRET; read-out: cAMP Production in 293-TGR5 Cells EC50. On the procedure:
HEK293 cells stably expressing TGR5 (HEK293-TGR5) were established by stably transfecting HEK-293 cells with an expression vector (pcDNA 3.1, Invetrogen) inserted with human TGR5 cDNA using Fugene6 (Roche, Indianapolis, Ind.) according to conventional methods. Cells were grown in DMEM (invitrogen, Carlsbad, Calif.) supplemented with 10% FBS, 1% penicillin/streptomycin under geneticin selection. The presence of TGR5 transcripts in these cells was confirmed using branched DNA (bDNA, Genospectra, Inc., Fremont Calif.) following the manufacturer's protocol and using specific probes for human TGR5. cAMP production assay was performed in high throughput 1536 well format using LANCE cAMP detection kit (Perkin Elmer Inc., Boston, Mass.) according to the manufacturer's protocol. Briefly, HEK293-TGR5 cells were harvested using non-enzymatic cell dissociation buffer (Invitrogen, Carlsbad, Calif.) and suspended in DMEM supplemented with 0.1% FBS at a density of 800,000 cells/ml. Alexa antibody was added to the cell suspension, and 4 ul of the mixture was dispensed in white opaque tissue culture treated Greiner 1536 well plates (USA Scientific, Inc., Ocala, Fla.). After an overnight incubation at 37C in an atmosphere of 10% CO2 and 95% humidity, 1 ul of 5 mM IBMX (Sigma, St. Louis, Mo.) solution in DMEM was dispensed for a final concentration of 1 mM. Cells were then stimulated with test compounds for 30 minutes, after which time 5 ul of detection reagent was added and incubated for 1-7 hrs at room temperature. TR-FRET signal was detected using the Viewlux (Perkin Elmer Inc., Boston Mass.). EC50 values were determined using Graph Pad Prizm analysis (GraphPad Software, Inc).
A general note: Changes in cAMP serve as a functional read-out for many G protein-coupled receptors.
On to `COc1ccc2cc(CNC3CCc4ccccc43)c(-c3ccncc3)nc2c1` (racemic) [Example 86, (±)-N-((7-Methoxy-2-(pyridin-4-yl)quinolin-3-yl)methyl)-2,3-dihydro-1H-inden-1-amine], for which the EC50 (commonly the midpoint of the concentration-response curve) was under 10 µM.

Take `COc1ccc2cc(C(C)NCCc3ccc(Br)cc3)c(-c3ccsc3)nc2c1` (racemic) [Example 143, (±)-N-(4-Bromophenethyl)-1-(7-methoxy-2-(thiophen-3-yl)quinolin-3-yl)ethanamine]: the EC50 was over 10 µM.

For the molecule `CC(NCCc1ccc(Br)cc1)c1cc2ccc(O)cc2nc1-c1ccsc1` (racemic) [Example 144, (±)-3-(1-(4-Bromophenethylamino)ethyl)-2-(thiophen-3-yl)quinolin-7-ol], the EC50 was over 10 µM.

`COc1ccc2cc(CNCc3ccc(C(F)(F)F)cc3)c(-c3ccsc3)nc2c1` [Example 1, 1-(7-methoxy-2-(thiophen-3-yl)quinolin-3-yl)-N-(4-(trifluoromethyl)benzyl)methanamine]: the EC50 was over 10 µM.

Regarding `COc1ccc2cc(CNCc3cccc(C(F)(F)F)c3)c(-c3ccsc3)nc2c1` [Example 3, 1-(7-Methoxy-2-(thiophen-3-yl)quinolin-3-yl)-N-(3-(trifluoromethyl)benzyl)methanamine], the EC50 was under 10 µM.

Take `Cc1cccc2cc(CNCCc3ccc(Cl)cc3)c(-c3ccsc3)nc12` [Example 4, 2-(4-Chlorophenyl)-N-((8-methyl-2-(thiophen-3-yl)quinolin-3-yl)methyl)ethanamine]: the EC50 is over 10 µM.

Take `Cc1cccc2cc(CNCc3ccc(C(F)(F)F)cc3)c(-c3ccsc3)nc12` [Example 5, 1-(8-Methyl-2-(thiophen-3-yl)quinolin-3-yl)-N-(4-(trifluoromethyl)benzyl)methanamine]: the EC50 is under 10 µM.

With `COc1ccc2cc(CNCc3ccc(C(F)(F)F)cc3)c(-c3cccnc3)nc2c1` [Example 6, 1-(7-Methoxy-2-(pyridin-3-yl)quinolin-3-yl)-N-(4-(trifluoromethyl)benzyl)methanamine], the EC50 is under 10 µM.

For `COc1ccc2cc(CNCCc3ccc(Cl)cc3)c(-c3cccnc3)nc2c1` [Example 7, 2-(4-Chlorophenyl)-N-((7-methoxy-2-(pyridin-3-yl)quinolin-3-yl)methyl)ethanamine], the EC50 was under 10 µM.

`COc1ccc2cc(CNCCc3ccc(F)cc3)c(-c3cccnc3)nc2c1` [Example 8, 2-(4-Fluorophenyl)-N-((7-methoxy-2-(pyridin-3-yl)quinolin-3-yl)methyl)ethanamine]: the EC50 was under 10 µM.

Consider `COc1ccc2cc(CNCc3ccc(OC(F)(F)F)cc3)c(-c3cccnc3)nc2c1` [Example 10, 1-(7-Methoxy-2-(pyridin-3-yl)quinolin-3-yl)-N-(4-(trifluoromethoxy)benzyl)methanamine], for which the EC50 is over 10 µM.

For `COc1ccc2cc(CNCc3ccc(N(C)C)cc3)c(-c3cccnc3)nc2c1` [Example 11, 4-(((7-Methoxy-2-(pyridin-3-yl)quinolin-3-yl)methylamino)methyl)-N,N-dimethylaniline], the EC50 was under 10 µM.

Turning to `FC(F)(F)Oc1ccc2cc(CNCc3ccc(C(F)(F)F)cc3)c(-c3ccsc3)nc2c1` [Example 12, 1-(2-(Thiophen-3-yl)-7-(trifluoromethoxy)quinolin-3-yl)-N-(4-(trifluoromethyl)benzyl)methanamine], the EC50 was under 10 µM.

As to `FC(F)(F)Oc1ccc2cc(CNCCc3ccc(Cl)cc3)c(-c3ccsc3)nc2c1` [Example 13, 2-(4-Chlorophenyl)-N-((2-(thiophen-3-yl)-7-(trifluoromethoxy)quinolin-3-yl)methyl)ethanamine], the EC50 was over 10 µM.

As to `FC(F)(F)Oc1ccc2cc(CNCCc3ccc(Cl)cc3)c(-c3cccnc3)nc2c1` [Example 14, 2-(4-Chlorophenyl)-N-((2-(pyridin-3-yl)-7-(trifluoromethoxy)quinolin-3-yl)methyl)ethanamine], the 50% effective concentration (EC50) was over 10 µM.

With `FC(F)(F)Oc1ccc2cc(CNCc3ccc(C(F)(F)F)cc3)c(-c3cccnc3)nc2c1` [Example 15, 1-(2-(Pyridin-3-yl)-7-(trifluoromethoxy)quinolin-3-yl)-N-(4-(trifluoromethyl)benzyl)-methanamine], the EC50 was under 10 µM.

In the case of `FC(F)(F)Oc1ccc2cc(CNCCc3ccc(Br)cc3)c(-c3cccnc3)nc2c1` [Example 16, 2-(4-Bromophenyl)-N-((2-(pyridin-3-yl)-7-(trifluoromethoxy)quinolin-3-yl)methyl)ethanamine], the EC50 was over 10 µM.

As to `COc1ccc2cc(CNC(=O)c3ccc(C(F)(F)F)cc3)c(-c3ccsc3)nc2c1` [Example 17, N-((7-methoxy-2-(thiophen-3-yl)quinolin-3-yl)methyl)-4-(trifluoromethyl)benzamide], the EC50 is over 10 µM.

Turning to `COc1ccc2cc(C(=O)NCc3ccc(C(F)(F)F)cc3)c(-c3ccsc3)nc2c1` [Example 18, 7-methoxy-2-(thiophen-3-yl)-N-(4-(trifluoromethyl)benzyl)quinoline-3-carboxamide], the EC50 is over 10 µM.

Consider `COc1ccc2cc(C(=O)NCCc3ccc(Cl)cc3)c(-c3ccsc3)nc2c1` [Example 19, N-(4-Chlorophenethyl)-7-methoxy-2-(thiophen-3-yl)quinoline-3-carboxamide], for which the EC50 was under 10 µM.

For `COc1ccc2cc(CNCc3ccc(C(F)(F)F)cc3)c(-c3cnn(C)c3)nc2c1` [Example 20, 1-(7-Methoxy-2-(1-methyl-1H-pyrazol-4-yl)quinolin-3-yl)-N-(4-(trifluoromethyl)benzyl)methanamine], the EC50 was under 10 µM.

Turning to `COc1ccc2cc(CNCCc3ccc(Cl)cc3)c(-c3cnn(C)c3)nc2c1` [Example 21, 2-(4-Chlorophenyl)-N-((7-methoxy-2-(1-methyl-1H-pyrazol-4-yl)quinolin-3-yl)methyl)ethanamine], the EC50 is under 10 µM.

For the molecule `COc1ccc2cc(CNCCc3ccc(Cl)cc3)c(-c3ccncc3)nc2c1` [Example 22, 2-(4-Chlorophenyl)-N-((7-methoxy-2-(pyridin-4-yl)quinolin-3-yl)methyl)ethanamine], the concentration for a half-maximal effect (EC50) is under 10 µM.

As for `COc1ccc2cc(CNCc3ccc(C(F)(F)F)cc3)c(-c3ccncc3)nc2c1` [Example 23, 1-(7-Methoxy-2-(pyridin-4-yl)quinolin-3-yl)-N-(4-(trifluoromethyl)benzyl)methanamine], the EC50 is under 10 µM.

In the case of `COc1ccc2cc(CNCc3ccc(C(F)(F)F)cc3)c(-c3ccccc3F)nc2c1` [Example 24, 1-(2-(2-Fluorophenyl)-7-methoxyquinolin-3-yl)-N-(4-(trifluoromethyl)benzyl)methanamine], the EC50 was over 10 µM.

As for `COc1ccc2cc(CNCCc3ccc(Cl)cc3)c(-c3ccccc3F)nc2c1` [Example 25, 2-(4-Chlorophenyl)-N-((2-(2-fluorophenyl)-7-methoxyquinolin-3-yl)methyl)ethanamine], the EC50 was under 10 µM.

For `COc1ccc2nc(-c3ccsc3)c(CNCc3ccc(C(F)(F)F)cc3)cc2c1` [Example 26, 1-(6-Methoxy-2-(thiophen-3-yl)quinolin-3-yl)-N-(4-(trifluoromethyl)benzyl)methanamine], the EC50 is over 10 µM.

Take `COc1ccc2nc(-c3ccsc3)c(CNCCc3ccc(Cl)cc3)cc2c1` [Example 27, 2-(4-Chlorophenyl)-N-((6-methoxy-2-(thiophen-3-yl)quinolin-3-yl)methyl)ethanamine]: the EC50 was over 10 µM.

Turning to `FC(F)(F)c1ccc(CNCc2cc3ccccc3nc2-c2ccsc2)cc1` [Example 28, 1-(2-(Thiophen-3-yl)quinolin-3-yl)-N-(4-(trifluoromethyl)benzyl)-methanamine], the EC50 is under 10 µM.

With `Clc1ccc(CCNCc2cc3ccccc3nc2-c2ccsc2)cc1` [Example 29, 2-(4-Chlorophenyl)-N-((2-(thiophen-3-yl)quinolin-3-yl)methyl)-ethanamine], the EC50 is over 10 µM.

Consider `COc1ccc2cc(CNCc3ccc(C(F)(F)F)cc3)c(-c3nccs3)nc2c1` [Example 30, 1-(7-methoxy-2-(thiazol-2-yl)quinolin-3-yl)-N-(4-(trifluoromethyl)benzyl)methanamine], for which the EC50 was over 10 µM.

Take `COc1ccc2cc(CNCCc3ccc(Cl)cc3)c(-c3nccs3)nc2c1` [Example 31, 2-(4-Chlorophenyl)-N-((7-methoxy-2-(thiazol-2-yl)quinolin-3-yl)methyl)ethanamine]: the EC50 was over 10 µM.
